This is an account of results in US20250378953A1, “ORGAN DIGITAL TWIN SYSTEMS AND METHODS FOR CREATING AND USING SUCH SYSTEMS” (Yale University, priority 2022, published 2025).

Read-outs that look alike come from different tables or passages of the source.

In this assay the test system is porcine kidney. The text has this: For the ex vivo normothermic perfusion of kidneys, data pertaining to the hemodynamics of the kidney were collected and monitored: kidney mass, urine output, arterial flow, arterial pressure, pump speed, hematocrit, and arterial oxygen saturation. To accomplish this, ZP-50N digital force gauges by Baoshishan were used to measure kidney mass and urine output; a Medtronic Bio-console device to measure flow, pressure, and pump speed; and a Medtronic Bio-trend device to measure hematocrit and oxygen saturation.
Data collection from these sensors was standardized at a rate of 0.2 Hz (approximately a data point every five seconds) and integrated via an open-source software written in Python. […] The act of collecting data from each sensor simultaneously presented a unique challenge in that a typical computer program is sequential in its execution, meaning that data collection from one sensor should not be able to occur until collection from another sensor is finished. Furthermore, the runtime complexity of the code block associated with each sensor meant that data collection from one sensor could potentially interfere with the collection from another, and vice-versa. To circumvent these issues, the code blocks for each sensor were run in separate threads using the Python threading library. This allowed each code block to be executed simultaneously in parallel (as opposed to sequentially in series), meaning data collection from one sensor was independent of data collection from all other sensors. After the data was extracted, the code block for each sensor transformed the data string by removing superfluous characters and converting the pertinent data into a float format. To upload the transformed data to the Azure cloud database the sys, platform, and pyodbc libraries were used to communicate with the edge device and establish a database connection using an SQL driver.
The “Blood gas data upload” feature allows one to manually input data collected from perfusate analysis assays. For our perfusion experiment, CG8+ and Renal Function Panel cartridges were used with iStat and Piccolo devices, respectively; however, the software can easily be modified to accommodate other perfusate assays.
Histamine was administered at two different time-points during the perfusion.

As for `NCCc1c[nH]cn1` [histamine], the “arterial flow after histamine” value runs as follows: (40 mg histamine on the arterial side at 240 minutes of perfusion) “Flow immediately stopped”; (100 mg histamine on the arterial side at 90 minutes of perfusion) “immediate halt of flow”. For the setting “after 40 mg histamine at 240 minutes, pump RPM slowly increased to 1900, no heparin”, the “time until flow normalized” value amounted to 30 min. Further, the “time until flow increased and arterial pressure normalized” value (after 100 mg histamine at 90 min, heparin at 120 minute, pump RPM 2000) is no more than 60 min. For the setting “after 100 mg histamine at 90 min, 20k units heparin added at 120 minute, pump RPM increased to 2000, starting arterial pressure 15 mmHg”, the “arterial pressure while flow slowly returned” value is given as 40-60 mmHg. In addition, for the setting “after first histamine administration, weight before histamine approximately 0.26 Kg”, the “kidney weight after flow and pressures normalized” value is 0.27 to 0.28 kg. Moreover, the “kidney weight after histamine (manual recordings)” value (after histamine at 90 minutes, weight before approximately 0.26 Kg) is reported as “approximately 0.24 Kg”. The “arterial pressure immediately after histamine” value (arterial administration of histamine) was “immediately increased”. Also, the “urine production (qualitative observation)” value (first histamine administration at 90 minutes) is listed as “initiate after the first histamine administration”.
